Test results taken from patent publication EP3201178B1 (University of Hertfordshire Higher Education Corporation, priority 2014, dated 2016).

What was measured:
SH-SY5Y cells = conditions: Tovilovic et al., 2012; cited from earlier work
dopamine D2 receptors = dopamine D2 receptors (Homo sapiens, UniProt P14416); experiment: binding affinity for the D2 DA receptor; conditions: for affinity for dopamine D2 receptors: result in words
[1] = system: ventral mesencephalic neurones; experiment: calcein AM fluorescence viability assay against lactacystin; format: cell-based, rat; conditions: 5 µM lactacystin; for protection against lactacystin in calcein AM fluorescence assay: compound concentrations 0.1 to 1 µM; for neuroprotection against lactacystin in calcein AM fluorescence assay at higher concentrations: compound concentrations 10 to 100 µM; for viability of ventral mesencephalic neurones, calcein AM assay (Figure 6 legend): low to medium concentrations of compound
Excerpt: (§1) • Figure 1 illustrates Scheme 1, the synthetic route and chemical structures N-{4-[2-(4-aryl-piperazin-1-yl)-ethyl]-phenyl}-arylsulphonamides, N-{3-[2-(4-aryl-piperazin-1-yl)-ethyl]-phenyl}-arylsulphonamides and N-{2-[2-(4-aryl-piperazin-1-yl)-ethyl]-phenyl}-arylsulphonamides; • Figure 2 illustrates Scheme 2 the synthetic route and chemical structures of the N-{4-[2-(4-aryl-piperazin-1-yl)-methyl]-phenyl}-arylsulphonamides, N-{3-[2-(4-aryl-piperazin-1-yl)-methyl]-phenyl}-arylsulphonamides and N-{2-[2-(4-aryl-piperazin-1-yl)-methyl]-phenyl}-arylsulphonamides; • Figure 3 illustrates Table 1 illustrating the chemical structure and binding affinity of the some new arylpiperazine-sulphonamides for the D2 DA and 5-HT1A receptors; • Figure 4 illustrates the effect of compounds 1 and 2 on motor clinical scores; • Figure 5 illustrates the viability of rat ventral mesencephalic cells in culture following administration of proteasomal inhibitor lactacystin (5µM) using MTT assay. Compound 4h (4207) and 4f (4295) are protective against the effect of lactacystin in this model; and • Figure 6 illustrates the viability of ventral mesencephalic neurones using calcein AM assay.

[2] = system: rat primary ventral mesencephalic neurones; experiment: MTT viability assay, lactacystin cytotoxicity on primary ventral mesencephalic neurones; format: cell-based; conditions: lactacystin 5µM, rat ventral mesencephalic cells in culture
Excerpt: as §1

5-HT1a receptors = target: T1, 5-HT1a receptors (Homo sapiens, UniProt P08908); experiment: binding affinity for the 5-HT1A receptor
T1 sequence (P08908 1-422): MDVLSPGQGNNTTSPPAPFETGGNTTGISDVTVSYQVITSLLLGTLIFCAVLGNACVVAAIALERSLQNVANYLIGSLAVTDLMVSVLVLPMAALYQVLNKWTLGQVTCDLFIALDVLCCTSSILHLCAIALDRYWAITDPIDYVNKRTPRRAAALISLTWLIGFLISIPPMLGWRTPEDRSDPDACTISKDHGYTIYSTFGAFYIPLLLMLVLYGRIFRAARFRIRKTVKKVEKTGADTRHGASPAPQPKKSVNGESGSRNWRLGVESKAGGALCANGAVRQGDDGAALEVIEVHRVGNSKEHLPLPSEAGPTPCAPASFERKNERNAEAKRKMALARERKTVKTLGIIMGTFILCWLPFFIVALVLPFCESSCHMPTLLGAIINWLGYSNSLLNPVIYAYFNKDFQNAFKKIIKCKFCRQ

Sequence of dopamine D2 receptors (P14416 whole entry): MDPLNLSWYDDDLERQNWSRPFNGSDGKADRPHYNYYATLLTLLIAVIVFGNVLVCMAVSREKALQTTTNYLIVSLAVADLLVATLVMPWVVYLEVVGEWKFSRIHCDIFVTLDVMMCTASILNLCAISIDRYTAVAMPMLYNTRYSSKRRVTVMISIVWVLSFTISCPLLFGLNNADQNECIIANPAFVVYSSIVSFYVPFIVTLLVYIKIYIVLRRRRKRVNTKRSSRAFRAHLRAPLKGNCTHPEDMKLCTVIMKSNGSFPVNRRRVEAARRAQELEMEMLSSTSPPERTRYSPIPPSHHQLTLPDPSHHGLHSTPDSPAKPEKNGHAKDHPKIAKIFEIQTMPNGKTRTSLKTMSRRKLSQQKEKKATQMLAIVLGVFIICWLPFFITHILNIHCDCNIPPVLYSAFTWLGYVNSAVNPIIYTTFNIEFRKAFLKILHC

SMILES | preventing mitochondrial damage and apoptosis induced by nitric oxide (NO) (SH-SY5Y cells) | affinity for dopamine D2 receptors (dopamine D2 receptors) | protection against lactacystin in calcein AM fluorescence assay [1] | neuroprotection against lactacystin in calcein AM fluorescence assay at higher concentrations [1] | viability of ventral mesencephalic neurones, calcein AM assay (Figure 6 legend) [1] | protection of dopaminergic neurons against lactacystin (cell viability, MTT assay) [2] | protection of dopaminergic neurons against lactacystin (cell viability, MTT assay) ([2]; hydrochloride) | other results
O=C(Nc1ccc(CCN2CCN(c3ccccc3)CC2)cc1)c1ccccn1 [Compound 1, N-{4-[2-(4-phenyl-piperazin-1-yl)ethyl]-phenyl}-picolinamide, reference compound] | most active | moderate affinity |  |  |  |  |  | 
O=C(Nc1cccc(CCN2CCN(c3ccccc3)CC2)c1)c1ccccn1 [Compound 2, N-{3-[2-(4-phenyl-piperazin-1-yl)ethyl]-phenyl}-picolinamide, reference compound] | most active | moderate affinity |  |  |  |  |  | 
O=S(=O)(Nc1ccc(CCN2CCN(c3ccccc3)CC2)cc1)c1ccccn1 [Compound 4f, N-{4-[2-(4-phenyl-piperazin-1-yl)-ethyl]-phenyl}-2-pyridylsulphonamide] |  |  | afford protection | neuroprotection was reversed | reversed cell death | protective |  | Ki (dopamine D2 receptors): 4.43 nM; protection of dopaminergic neurons against lactacystin (cell viability, MTT assay) ([2]; listed as 4295): markedly protected
Cl.O=S(=O)(Nc1cccc(CCN2CCN(c3ccccc3)CC2)c1)c1cccnc1 [Compound 4h, N-{3-[2-(4-phenyl-piperazin-1-yl)-ethyl]-phenyl}-3-pyridylsulphonamide hydrochloride] |  | little or no affinity | afford protection | neuroprotection was reversed | reversed cell death |  | protective | protection of dopaminergic neurons against lactacystin (cell viability, MTT assay) ([2]; listed as 4207, hydrochloride): most protection; Ki (5-HT1a receptors): 6.88 nM
Cl.O=S(=O)(Nc1cccc(CCN2CCN(c3ccccc3)CC2)c1)c1cccnc1 [Compound 4208, N-{3-[2-(4-phenyl-piperazin-1-yl)-ethyl]-phenyl}-3-pyridylsulphonamide hydrochloride] |  |  |  |  |  |  | markedly protected | 
O=S(=O)(Nc1cccc(CCN2CCN(c3ccccc3)CC2)c1)c1ccccn1 [Compound 4298] |  |  |  |  |  | markedly protected |  | 
